Assay results from US20120177606A1, “LACTIC ACID BACTERIUM FOR INHIBITING PRODUCTION OF GASTRIC ACID AND GASTRIN” (SNOWDEN KABUSHIKIKAISHA, priority 2011, published 2012).
“Also recorded” adds a separate entry of the source.

System: gastrin production
Experiment: Side effects of continuous PPI administration (stomach weight ratio, gastrin-positive cells) and alleviation by lived No. 1088
Type: in vivo
Settings: PBS-administered mice, Omeprazole 200 μg subcutaneously every other day for 4 or 8 weeks, vs no PPI
Experimental: Six groups of mice were prepared, each containing five 4-week old GF-Balb/c male mice. Three of the groups were administered orally with a suspension prepared by suspending 1×10^9 CFU of lived No. 1088 in PBS, and the remaining three groups were administered orally with an equal volume of PBS.
When the mice reached 8 weeks of age, a treatment was started for one group of the No. 1088-administered mice and one group of the PBS-administered mice in which the mice were administered subcutaneously every other day with a solution prepared by dissolving 200 μg of the PPI Omeprazole (AstraZeneca Ltd.) in 200 μL of PBS (8 weeks of continuous PPI administration). […]
Upon reaching 16 weeks of age, the mice of each group were killed, and following measurement of the bodyweight, the stomach was extracted from each mouse, the stomach contents (feed and the like) were removed by washing with PBS, and the stomach weight was measured. […]
The stained tissue sections were subjected to observation and image capture using a fluorescence microscope BZ-9000. […]
Using the bodyweights and stomach weights measured upon extraction of the stomachs from the samples of each group, the ratio (%) of stomach weight to bodyweight was calculated for each group. […]

## COc1ccc2[nH]c([S+]([O-])Cc3ncc(C)c(OC)c3C)nc2c1 (centres unmarked) [PPI, Omeprazole]
  number of gastrin-producing cells: increased; also recorded: significant increases
  stomach weight ratio (stomach weight to bodyweight): significant increases
